Laboratory results taken from PMC6539594, “Triazolopeptides Inhibiting the Interaction between Neuropilin-1 and Vascular Endothelial Growth Factor-165” (Molecules, 2019).
Several values for one entry are separate records, joined by “and”; a condition that tells them apart may be missing. Identical values can stand only once. Entries after “also recorded” stand apart in the source; their conditions may differ. Like-named read-outs stand apart in the source and are kept apart here. Values belong to the molecule of their own block, whether it stands above or below them. Where no end group is shown, it is not given here. [ ]: non-standard residue; d: D form. hArg = N=C(N)NCCCC[C@H](N)C(=O)O; Dab = NCC[C@H](N)C(=O)O

Columns and labels:
[1] = biological target: T1, NRP-1 (neuropilin-1), binding of bt-VEGF165 (Homo sapiens, UniProt O14786); assay: ELISA: inhibition of bt-VEGF165 binding to NRP-1; conditions: for Inhibition of bt-VEGF165 Binding to NRP-1 [10 µM] / inhibition at 10 µM: mean ± S.D.
Description: The inhibitory activity of obtained triazolopeptides 1–23 toward binding of VEGF165 to NRP-1 was measured with the enzyme-linked immunosorbent assay (ELISA). This protocol was described earlier in the literature and was broadly used by our group. VEGF165 was used in biotinylated form (bt-VEGF165).
This assay was carried out according to a previously described method.

[2] = biological target: T1, NRP-1 (neuropilin-1), binding of bt-VEGF165; conditions: cited from earlier work
[3] = tested on: drug-resistant MDA-MB-231 human breast cancer cells xenograft; design: method as in PMID 16959272; conditions: nude mice xenografted with drug-resistant MDA-MB-231 human breast cancer cells; cited from earlier work
[4] = design: method as in PMID 30241012; conditions: human plasma; cited from earlier work
[5] = Proteolytic stability by incubation in human plasma at 37 °C (HPLC-MS); assay type: in vitro ADME; conditions: for remaining at 8 h, 1.1 µmol/mL / remaining at 16 h, 1.1 µmol/mL / remaining at 24 h, 1.1 µmol/mL / remaining at 32 h, 1.1 µmol/mL / remaining at 40 h, 1.1 µmol/mL / remaining at 48 h, 1.1 µmol/mL: human; for remaining at 8 h, 1.1 µmol/mL / remaining at 16 h, 1.1 µmol/mL / remaining at 24 h, 1.1 µmol/mL / remaining at 32 h, 1.1 µmol/mL / remaining at 40 h, 1.1 µmol/mL / remaining at 48 h, 1.1 µmol/mL / half-life: pooled human plasma
Description: The samples of the incubated solutions were taken at constant time intervals (every 8 h) and analyzed with the use of HPLC-MS. This technique allows for determination of the proteolysis rate, and enables finding the cleavage sites by structural determination of appearing metabolites. To this aim, we used a previously established protocol.
The human plasma was provided by Mossakowski Medical Research Centre Polish Academy of Sciences (venous blood was obtained from three healthy donors and plasma samples were pooled in equal volumes). Triazolopeptide stock solution was prepared to achieve concentration ca. 1.4 mg/mL. Then, this solution was diluted two-fold into human plasma, affording a final concentration of ca. 1.1 µmol/mL. The samples were mixed on vortex mixer and incubated at 37 °C with 700 rpm mixing in thermoblock. Samples of 100 µL were taken every 8 h; the enzymatic cleavage was quenched by addition of 200 µL of 15% aqueos trichloroacetic acid and vortexed for a while. Precipitated proteins were then centrifuged at 14,000 rpm and 4 °C for 10 min to pellet them. After that, 150 µL of supernatant was taken and analyzed on HPLC-MS (quadrupole mass analyzer and electrospray ionization source). The system was equipped with Jupiter Proteo column I.D. 2.0 mm × 250 mm, phase A: ultrapure water + 0.05% TFA, phase B: gradient grade acetonitrile + 0.05% TFA, detection at 210 nm, quadrupole fixed on scan mode. Elution was with linear increase from 0% to 15% of phase B in 30 min, flow = 0.2 mL/min. All samples were analyzed trice in independent experiments.

[6] = tested on: myeloblast-like cell line derived from bone marrow (32D); assay: In vitro cell survival test (Muse Count & Viability Kit); conditions: 32D cells
Description: (§1) For this reason, we carried out a preliminary cytotoxicity assay on murine progenitor cells (myeloblast-like cell line derived from long term cultures of bone marrow 32D) to investigate the impact of 4 at different concentrations on their viability.
(§2) For the cell survivability test, the myeloblast-like cell line derived from long term cultures of bone marrow (32D, ATCC #CRL-11346) was used. Experiments were carried out using Muse Count & Viability Kit and Muse Cell Analyzer (Merck Millipore) according to the procedure given. Cells were incubated for 24 or 48 h with given 4 concentration. Each experiment was performed in three technical replications in three independent experiments.

in vitro = conditions: mouse, cell viability (Muse Cell Analyser), single replicates
Description: as §1, §2

[7] = read-out: Relative (peak area average vs 0 h)

T1 sequence (O14786 22-923, species assumed): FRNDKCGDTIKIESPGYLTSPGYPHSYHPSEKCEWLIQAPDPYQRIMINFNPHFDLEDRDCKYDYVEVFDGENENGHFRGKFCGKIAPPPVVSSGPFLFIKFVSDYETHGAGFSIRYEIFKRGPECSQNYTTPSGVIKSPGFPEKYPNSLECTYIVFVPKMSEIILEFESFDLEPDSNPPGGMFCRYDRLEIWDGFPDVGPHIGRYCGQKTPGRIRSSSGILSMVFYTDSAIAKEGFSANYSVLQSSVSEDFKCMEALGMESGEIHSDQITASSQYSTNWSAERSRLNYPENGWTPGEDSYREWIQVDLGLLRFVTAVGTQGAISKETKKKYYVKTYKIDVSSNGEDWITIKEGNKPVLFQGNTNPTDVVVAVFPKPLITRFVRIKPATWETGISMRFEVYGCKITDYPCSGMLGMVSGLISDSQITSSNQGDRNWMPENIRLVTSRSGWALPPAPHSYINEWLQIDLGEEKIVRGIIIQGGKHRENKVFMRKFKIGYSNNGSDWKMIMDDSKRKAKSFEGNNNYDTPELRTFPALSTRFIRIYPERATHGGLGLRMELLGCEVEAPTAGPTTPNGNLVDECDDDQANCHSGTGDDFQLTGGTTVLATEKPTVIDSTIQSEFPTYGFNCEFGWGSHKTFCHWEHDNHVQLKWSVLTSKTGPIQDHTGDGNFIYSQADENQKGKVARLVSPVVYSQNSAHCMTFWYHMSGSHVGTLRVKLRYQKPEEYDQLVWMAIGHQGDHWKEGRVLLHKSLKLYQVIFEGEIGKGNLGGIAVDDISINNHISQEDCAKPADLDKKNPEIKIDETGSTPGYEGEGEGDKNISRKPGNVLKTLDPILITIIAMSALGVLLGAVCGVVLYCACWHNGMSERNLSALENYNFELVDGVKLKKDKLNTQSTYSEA

Inhibition of bt-VEGF165 Binding to NRP-1 [10 µM] [1]: 25.3 ± 3.5%
Molecule: Dap(Har)-GlyΨ[Trl]GlyΨ[Trl]Arg [Compound 18]

Inhibition of bt-VEGF165 Binding to NRP-1 [10 µM] [1]: 43.7 ± 0.5%
Molecule: D-Lys(Fmoc-Har)-GlyΨ[Trl]GlyΨ[Trl]Arg [Compound 15]

Inhibition of bt-VEGF165 Binding to NRP-1 [10 µM] [1]: 36.5 ± 1.4%
Molecule: Har-Lys-GlyΨ[Trl]GlyΨ[Trl]Arg [Compound 16]

Inhibition of bt-VEGF165 Binding to NRP-1 [10 µM] [1]: 30.5 ± 0.6%
Molecule: Har-6Ahx-GlyΨ[Trl]GlyΨ[Trl]Arg [Compound 19]

Inhibition of bt-VEGF165 Binding to NRP-1 [10 µM] [1]: 41.3 ± 0.5%
Molecule: Dab(Har)-GlyΨ[Trl]GlyΨ[Trl]Arg [Compound 17]

Inhibition of bt-VEGF165 Binding to NRP-1 [10 µM] [1]: 20.0 ± 2.1%
Molecule: Har-GlyΨ[Trl]GlyΨ[Trl]Arg [Compound 23]

Inhibition of bt-VEGF165 Binding to NRP-1 [10 µM] [1]: 34.8 ± 1.5%
Molecule: Har-GlyΨ[Trl]GlyΨ[Trl]GlyΨ[Trl]Arg [Compound 13]

Inhibition of bt-VEGF165 Binding to NRP-1 [10 µM] [1]: 35.7 ± 1.6%
Molecule: Har-Gly-GlyΨ[Trl]GlyΨ[Trl]Arg [Compound 22]

Inhibition of bt-VEGF165 Binding to NRP-1 [10 µM] [1]: 29.7 ± 1.8%
Molecule: Har-5Ava-GlyΨ[Trl]GlyΨ[Trl]Arg [Compound 20]

Inhibition of bt-VEGF165 Binding to NRP-1 [10 µM] [1]: 27.8 ± 2.1%
Molecule: Har-Ala-GlyΨ[Trl]GlyΨ[Trl]Arg [Compound 21]

Further lines, the molecule ahead of its results:

Molecule: Lys(Fmoc-Har)-GlyΨ[Trl]GlyΨ[Trl]Arg [Compound 14]
Inhibition of bt-VEGF165 Binding to NRP-1 [10 µM] [1]: 57.7 ± 1.8%

Molecule: Lys(Har)-GlyΨ[Trl]Arg [Compound 1]
Inhibition of bt-VEGF165 Binding to NRP-1 [10 µM] [1]: 28.1 ± 1.2%

Molecule: Lys(Har)-GlyΨ[Trl]Gly-Arg [Compound 11]
Inhibition of bt-VEGF165 Binding to NRP-1 [10 µM] [1]: 30.6 ± 1.1%

Molecule: ATWKPPR [A7R]
Inhibition of bt-VEGF165 Binding to NRP-1 [10 µM] [2]: 61.0 ± 0.4 ^3%
IC50 [2]: 5.86 µM
activity in vivo [3]: active in vivo

Molecule: Lys(Har)-Pro-Dab-Arg
t1/2 [4]: 0.733 h

Molecule: Lys-Pro-Pro-Arg (KPPR; printed: Lys-Pro-Pro-Arg)
Inhibition of bt-VEGF165 Binding to NRP-1 [10 µM] [2]: 64.5%
IC50 [2]: 4.6 µM

Molecule: Lys(Har)-Pro-GlyΨ[Trl]Arg [Compound 6]
Inhibition of bt-VEGF165 Binding to NRP-1 [10 µM] [1]: 18.3 ± 0.9%

Molecule: Lys(Har)-Pro-Ala-Arg (KPAR)
IC50 [2]: 0.2 µM

Molecule: N=C(N)NCCCC[C@H](N)C(=O)NCCCC[C@@H](N)C(=O)NCc1cn(Cc2cn([C@@H](CCCNC(=N)N)C(=O)O)nn2)nn1 [Compound 4, D-Lys(Har)-GlyΨ[Trl]GlyΨ[Trl]Arg]
compound remained in the solution after 48 h of incubation [5]: almost undigested; also recorded: almost non-degraded
remaining at 8 h, 1.1 µmol/mL [5, 7]: 99.4%
remaining at 16 h, 1.1 µmol/mL [5, 7]: 95.7%
remaining at 24 h, 1.1 µmol/mL [5, 7]: 93.3%
remaining at 32 h, 1.1 µmol/mL [5, 7]: 93.1%
remaining at 40 h, 1.1 µmol/mL [5, 7]: 93%
remaining at 48 h, 1.1 µmol/mL [5, 7]: 91.8%
half-life [5]: > 48 h
IC50 [1]: 10.2 µM
inhibition at 10 µM [1]: 52.6 ± 1.3%
impact on cell survivability ([6]; 100 µM, 48 h incubation): does not exhibit any significant impact on normal cells’ viability; also recorded: does not exhibit any significant impact on cell survivability
cell survival, t-test ([6]; different concentrations): No significant differences in cell survival
viability at 24 h, 0.1 µM (in vitro): 99.4%
viability at 24 h, 1 µM (in vitro): 99.3%
viability at 24 h, 10 µM (in vitro): 99%
viability at 24 h, 50 µM (in vitro): 98.7%
viability at 24 h, 100 µM (in vitro): 98.6%
viability at 48 h, 0.1 µM (in vitro): 99.4%
viability at 48 h, 1 µM (in vitro): 99.6%
viability at 48 h, 10 µM (in vitro): 99.4%
viability at 48 h, 50 µM (in vitro): 99.7%
viability at 48 h, 100 µM (in vitro): 99.2%

Molecule: Har-Pro-GlyΨ[Trl]Arg [Compound 12]
Inhibition of bt-VEGF165 Binding to NRP-1 [10 µM] [1]: 9.2 ± 0.8%

Molecule: Lys(Har)-Dap-Pro-Arg
Inhibition of bt-VEGF165 Binding to NRP-1 [10 µM] [2]: 96.8%
IC50 [2]: 0.2 µM
t1/2 [4]: 41 h

Molecule: N=C(N)NCCCC[C@@H](N)C(=O)NCCCC[C@@H](N)C(=O)NCc1cn(Cc2cn([C@@H](CCCNC(=N)N)C(=O)O)nn2)nn1 [Compound 5, D-Lys(D-Har)-GlyΨ[Trl]GlyΨ[Trl]Arg]
inhibition at 10 µM [1]: 48.5 ± 2.9%
IC50 ([1]; dose-response curve, supplement): 9.11 µM

Molecule: N=C(N)NCCCC[C@H](N)C(=O)NCCCC[C@H](N)C(=O)NCc1cn(Cc2cn([C@@H](CCCNC(=N)N)C(=O)O)nn2)nn1 [Compound 3, Lys(Har)-GlyΨ[Trl]GlyΨ[Trl]Arg]
compound remained in the solution after 48 h of incubation [5]: more than 70%
remaining at 8 h, 1.1 µmol/mL [5, 7]: 91.3%
remaining at 16 h, 1.1 µmol/mL [5, 7]: 90%
remaining at 24 h, 1.1 µmol/mL [5, 7]: 87.6%
remaining at 32 h, 1.1 µmol/mL [5, 7]: 81.8%
remaining at 40 h, 1.1 µmol/mL [5, 7]: 73.4%
remaining at 48 h, 1.1 µmol/mL [5, 7]: 72.2%
remaining at 48 h, 1.1 µmol/mL ([5]; read-out: compound remained in the solution after 48 h of incubation): ~70%
half-life [5]: > 48 h
IC50 [1]: 8.39 µM
inhibition at 10 µM [1]: 58.1 ± 2.1%

Molecule: Lys(Har)-GlyΨ[Trl]Ala-Arg [Compound 10]
Inhibition of bt-VEGF165 Binding to NRP-1 [10 µM] [1]: 43.3% and 43.2 ± 1.5%

Molecule: D-Lys(Har)-GlyΨ[Trl]Arg [Compound 2]
Inhibition of bt-VEGF165 Binding to NRP-1 [10 µM] [1]: 33.1 ± 1.9%

Molecule: Lys(Har)-Dab-Pro-Arg
Inhibition of bt-VEGF165 Binding to NRP-1 [10 µM] [2]: 98.5%
IC50 [2]: 0.2 µM
t1/2 [4]: 34 h

Molecule: Lys(Har)-Pro-Ala-Arg
t1/2 [4]: 0.65 h

Molecule: D-Lys(Har)-Phe-GlyΨ[Trl]Arg [Compound 9]
Inhibition of bt-VEGF165 Binding to NRP-1 [10 µM] [1]: 37.9 ± 1.1%

Molecule: D-Lys(Har)-Pro-GlyΨ[Trl]Arg [Compound 7]
Inhibition of bt-VEGF165 Binding to NRP-1 [10 µM] [1]: 38.4 ± 1.5%

Molecule: Lys(Har)-Pro-Dab-Arg (K(hArg)P[Dab]R)
IC50 [2]: 0.3 µM

Molecule: Lys(Har)-Phe-GlyΨ[Trl]Arg [Compound 8]
Inhibition of bt-VEGF165 Binding to NRP-1 [10 µM] [1]: 30.9 ± 2.1%
